The subject of series [1] is LDL. The conditions noted are these: in vitro; cited from earlier work.
The conditions of series [2]: supplementation; cited from earlier work.
The conditions of series [3]: 6 week supplementation; cited from earlier work.
A short description of series [4]: Clinical study: plasma lipid peroxides, copper and zinc in women under Yasmin. The format is in vivo. The text has this: (§1) Subjects: 60 women were selected on the basis of the below-mentioned selection criteria and divided into 4 groups. Keeping a possible dropout in mind (in total 45 women completed the study), these groups were designed such, that by the end of the study; groups SOCO_A and SOCO_D would contain 15 subjects; and groups SOCO_B and SOCO_C would contain 10 subjects.
(§2) Inclusion Criteria: • Age: between 18 and 35 years • Informed consent collected • Patients under oral contraception with Yasmin for at least three months
(§3) Whereby one menstrual cycle is flanked by 2 vertical lines and, whereby: • SOCO_A) represents the intake of a combination of a Zinc supplement and a Quercetin supplement • SOCO_B) represents the intake of a Zinc supplement • SOCO_C) represents the intake of a Quercetin supplement • SOCO_D) represents the intake of a placebo supplement
(§4) And whereby: • V1 represents a first visit between day −42 and day −14 • V2 represents a second visit between day −7 and −3 • V3 represents a third visit between day 23 and 27 • V4 represents a fourth visit between day 51 and 55 • V5 represents a fifth visit between day 113 and 117
(§5) SOCO_A: Quercetin DC 500 mg • Zinc picolinate 20% (elementary 22.5 mg) 113 mg • Magnesium stearate 3 mg • 1 capsule per day during 112 days
(§6) SOCO_B: Zinc picolinate 20% (elementary 22.5 mg) 113 mg • Dicalcium phosphate 125 mg • Cellulose microcrystals 375 mg • Magnesium stearate 3 mg • 1 capsule per day during 112 days
(§7) SOCO_C: Quercetin DC 500 mg • Dicalcium phosphate 85 mg • Cellulose microcrystals 28 mg • Magnesium stearate 3 mg • 1 capsule per day during 112 days
(§8) SOCO_D: Dicalcium phosphate 460 mg • Cellulose microcrystals 153 mg • Magnesium stearate 3 mg • 1 capsule per day during 112 days
(§9) A blood sample (2-3 tubes of +/−5 ml) was collected during each visit. A maximum of 60 ml blood was required per subject for the whole study. Blood samples for haematological and biochemical tests were collected during V1 and V5, and blood samples for oxidative stress assessment were collected during V2, V3, V4 and V5.
(§10) Plasma concentration of lipid peroxides, copper and zinc were determined in blood samples taken at V2, V3, V4 and V5. Plasma concentration of oxidized LDL was determined in blood samples taken at V2 and V5. The expression of 200 genes involved in oxidative stress were determined via quantitative measurements of mRNA expression by microarray, in blood samples taken at V2 and V5.

The next series deals with oxidized LDL. As to the kind of experiment: Clinical study: plasma oxidized LDL in women under Yasmin. The format is in vivo. The following applies: for number of responders (minimum of 35% decrease of oxLDL): T4 versus T0; for effect on LDL oxidation: general conclusion; for oxLDL at T4 compared to T0: plasma, within arm.
Excerpt: as §1, §2, §3, §4, §5, §6, §7, §8, §9, §10

For series [5] the following is noted: zinc supplemented group; cited from earlier work.
For series [6], the system named is LDL. The conditions noted are these: zinc supplementation; cited from earlier work.
The conditions of series [7]: hypobaric hypoxia studies and COPD study; cited from earlier work.
The conditions of series [8]: zinc supplementation; cited from earlier work.

Like-named read-outs stand apart in the source and are kept apart here.

Take `O=c1c(O)c(-c2ccc(O)c(O)c2)oc2cc(O)cc(O)c12` [quercetin]: the “inhibition of oxidative damage to LDL” value in the series with LDL [1] is recorded as “most effective inhibitor”. Moreover, the “protection from oxidative stress induced damage” value in series [2] was “does not exert protection”.
Consider `C[C@@H]1O[C@@H](OC[C@H]2O[C@@H](Oc3c(-c4ccc(O)c(O)c4)oc4cc(O)cc(O)c4c3=O)[C@H](O)[C@@H](O)[C@@H]2O)[C@H](O)[C@H](O)[C@H]1O` [rutin], for which the “levels of three plasma flavonoids” value in series [3] is “significantly elevated”.
For the molecule Zinc picolinate [Zinc alone], in series [4] (compared to placebo), the “mean relative change in Cu/Zn between T4 and T0 (mean Cu/Zn decrease)” value is “significant”; the “mean relative change in Zn between T4 and T0 (mean zinc increase)” value is on record as “significant”. In series [4] (compared to quercetin alone), the “mean relative change in Cu/Zn between T4 and T0 (mean Cu/Zn decrease)” value is listed as “significant”; the “mean relative change in Zn between T4 and T0 (mean zinc increase)” value is given as “significant”. For the same molecule, in the series on oxidized LDL, the “number of responders (minimum of 35% decrease of oxLDL)” value was 0%, the “effect on LDL oxidation” value is “No effect” and the “oxLDL at T4 compared to T0” value is given as “no significant changes”.
`O=c1c(O)c(-c2ccc(O)c(O)c2)oc2cc(O)cc(O)c12` [quercetin alone, Quercetin]: in the series with oxidized LDL, the “number of responders (minimum of 35% decrease of oxLDL)” value worked out at 0%, the “effect on LDL oxidation” value is listed as “weak effect” and the “oxLDL at T4 compared to T0” value was “weak significant decrease”.
Take `[Zn]` [zinc]: the incidence of infection entry in series [5] is on record as “significantly lower”. In addition, the lipid peroxides entry in [5] is given as “significant diminution”. In addition, in the series on LDL [6], the “Cu-induced LDL oxidation” value was “no effects”. The oxidative stress markers result in series [7] was “no effects”; in series [8], “did not alter”.
